Test results as given in US11236069B2, “KIF18A inhibitors” (AMGEN INC., priority 2018, dated 2022).
Read-outs that look alike come from different tables or passages of the source.

Target: Recombinant human KIF18A (1-467 His-tagged) protein (Homo sapiens (Human), UniProt Q8NI77)
Experiment: KIF18A Enzyme Assay: microtubule-stimulated ATPase activity (ADP-Glo)
Settings: read-out: KIF18A ATPase IC50
[1] = 30 nM KIF18A, 30 μg/mL pig microtubules, ATP at Km 75 μM, ADP-Glo luminescence

Sequence of Recombinant human KIF18A (1-467 His-tagged) protein (Q8NI77 1-467): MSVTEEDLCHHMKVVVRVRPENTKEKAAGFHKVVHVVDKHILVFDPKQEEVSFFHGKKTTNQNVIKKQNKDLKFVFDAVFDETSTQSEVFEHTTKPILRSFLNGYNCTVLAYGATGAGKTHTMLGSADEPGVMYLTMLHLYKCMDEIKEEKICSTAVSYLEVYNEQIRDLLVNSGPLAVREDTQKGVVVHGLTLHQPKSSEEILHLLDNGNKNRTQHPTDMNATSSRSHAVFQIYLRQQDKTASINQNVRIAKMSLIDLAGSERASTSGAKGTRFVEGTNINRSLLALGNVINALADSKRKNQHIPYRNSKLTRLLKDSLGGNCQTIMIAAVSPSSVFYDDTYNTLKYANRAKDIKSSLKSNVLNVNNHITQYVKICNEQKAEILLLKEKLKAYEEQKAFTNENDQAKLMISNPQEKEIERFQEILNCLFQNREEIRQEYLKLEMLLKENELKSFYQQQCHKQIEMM
Sequence of Recombinant human KIF18A (1-467 His-tagged) protein (P02550 whole entry partner): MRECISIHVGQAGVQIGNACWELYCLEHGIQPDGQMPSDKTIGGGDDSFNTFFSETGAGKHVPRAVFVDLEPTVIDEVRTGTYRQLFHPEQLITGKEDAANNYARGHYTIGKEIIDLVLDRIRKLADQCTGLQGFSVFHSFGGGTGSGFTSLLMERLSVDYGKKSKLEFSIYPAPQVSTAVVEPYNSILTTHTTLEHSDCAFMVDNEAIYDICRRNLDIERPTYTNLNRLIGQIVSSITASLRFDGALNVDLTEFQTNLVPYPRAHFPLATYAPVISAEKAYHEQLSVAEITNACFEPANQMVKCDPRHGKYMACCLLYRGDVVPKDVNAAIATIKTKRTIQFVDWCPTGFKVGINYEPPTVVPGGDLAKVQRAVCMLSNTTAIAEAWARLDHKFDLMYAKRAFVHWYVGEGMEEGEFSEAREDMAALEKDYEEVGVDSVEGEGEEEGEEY
Sequence of Recombinant human KIF18A (1-467 His-tagged) protein (P02554 whole entry partner): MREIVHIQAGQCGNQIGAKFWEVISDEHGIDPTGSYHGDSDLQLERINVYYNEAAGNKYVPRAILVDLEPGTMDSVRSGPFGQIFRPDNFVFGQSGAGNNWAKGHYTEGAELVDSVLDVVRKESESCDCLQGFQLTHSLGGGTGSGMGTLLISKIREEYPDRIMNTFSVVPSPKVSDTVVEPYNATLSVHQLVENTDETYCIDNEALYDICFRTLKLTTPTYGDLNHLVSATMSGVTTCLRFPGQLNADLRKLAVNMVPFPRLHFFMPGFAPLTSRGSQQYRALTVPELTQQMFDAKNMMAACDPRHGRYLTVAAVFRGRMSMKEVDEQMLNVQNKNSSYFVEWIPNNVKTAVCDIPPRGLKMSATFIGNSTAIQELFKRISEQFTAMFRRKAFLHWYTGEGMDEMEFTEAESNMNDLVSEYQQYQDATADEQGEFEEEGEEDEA
Excerpt: KIF18A Enzyme Assay: Microtubule-stimulated ATPase activity assay is used to measure KIF18A enzyme activity after treatment with compound. Compounds were 2-fold serially diluted in DMSO (Sigma Inc) over 22-point concentration range. […] The assay measures ADP formed from the ATPase reaction.

IC50 [1] [nM]	Compound	IC50 [nM]
115	C[C@H](O)CS(=O)(=O)Nc1ccc(C(=O)Nc2ccnc(N3CCO[C@H](C)C3)n2)c(N2CCC3(CC2)CC3)c1 [Example 6-33-1, 4-(((S)-2-Hydroxypropyl)sulfonamido)-N-(2-((R)-2-methylmorpholino)pyrimidin-4-yl)-2-(6-azaspiro[2.5]octan-6-yl)benzamide]	–
27	Cc1cc(NC(=O)c2ccc(NS(=O)(=O)CCO)cc2N2CCC3(CC2)CC3)nc(C(C)C)n1 [Example 11-2, 4-((2-Hydroxyethyl)sulfonamido)-N-(2-isopropyl-6-methylpyrimidin-4-yl)-2-(6-azaspiro[2.5]octan-6-yl)benzamide]	–
240	C[C@@H]1CN(c2nccc(NC(=O)c3ccc(S(C)(=O)=O)cc3N3CCC4(CC3)CC4)n2)CCO1 [Example 2-7, (R)-N-(2-(2-Methylmorpholino)pyrimidin-4-yl)-4-(methylsulfonyl)-2-(6-azaspiro[2.5]octan-6-yl)benzamide]	–
64	Cc1cc(NC(=O)c2ccc(NS(=O)(=O)CCO)cc2N2CCC3(CC2)CC3)nc(N2CC(O)(C(F)(F)F)C2)n1 [Example 11-18, N-(2-(3-Hydroxy-3-(trifluoromethyl)azetidin-1-yl)-6-methylpyrimidin-4-yl)-4-((2-hydroxyethyl)sulfonamido)-2-(6-azaspiro[2.5]octan-6-yl)benzamide]	–
32	COCCS(=O)(=O)Nc1ccc(C(=O)Nc2cc(C)nc(N3CCC(F)(F)CC3)n2)c(N2CCC3(CC2)CC3)c1 [Example 6-17, N-(2-(4,4-Difluoropiperidin-1-yl)-6-methylpyrimidin-4-yl)-4-((2-methoxyethyl)sulfonamido)-2-(6-azaspiro[2.5]octan-6-yL)benzamide]	–
38.4	Cc1cc(NC(=O)c2ccc(NS(=O)(=O)CCO)cc2N2CCC3(CC2)CC3)cc(N2CCC(F)(F)CC2)n1 [Example 6-30, N-(2-(4,4-Difluoropiperidin-1-yl)-6-methylpyridin-4-yl)-4-((2-hydroxyethyl)sulfonamido)-2-(6-azaspiro[2.5]octan-6-yl)benzamide]	–
2420	Cc1cc(NC(=O)c2ccc(NS(=O)(=O)C3CCCC3)cc2N2CCC3(CC2)CC3)nc(N2CCC(F)(F)CC2)n1 [Example 6-10, 4-(Cyclopentanesulfonamido)-N-(2-(4,4-difluoropiperidin-1-yl)-6-methylpyrimidin-4-yl)-2-(6-azaspiro[2.5]octan-6-yl)benzamide]	–
65	Cc1cc(NC(=O)c2ccc(S(=O)(=O)NC3(C)COC3)cc2N2CCC3(CC2)CC3)nc(C(C)(C)O)n1 [Example 2-1, N-(2-(2-Hydroxypropan-2-yl)-6-methylpyrimidin-4-yl)-4-(N-(3-methyloxetan-3-yl)sulfamoyl)-2-(6-azaspiro[2.5]octan-6-yl)benzamide]	–
52	Cc1cc(NC(=O)c2ccc(NS(=O)(=O)C3CCC3)cc2N2CCC3(CC2)CC3)nc(N2CC(F)(F)C2)n1 [Example 6-13, 4-(Cyclobutanesulfonamido)-N-(2-(3,3-difluoroazetidin-1-yl)-6-methylpyrimidin-4-yl)-2-(6-azaspiro[2.5]octan-6-yl)benzamide]	–
168	Cc1cc(NC(=O)c2ccc(S(=O)(=O)NC3(C)COC3)cc2N2CCC3(CC2)CC3)nc(NC(C)(C)CO)n1 [Example 1-7, N-(2-((1-Hydroxy-2-methylpropan-2-yl)amino)-6-methylpyrimidin-4-yl)-4-(N-(3-methyloxetan-3-yl)sulfamoyl)-2-(6-azaspiro[2.5]octan-6-yl)benzamide]	–
144	Cc1cc(NC(=O)c2ccc(NS(=O)(=O)CCO)cc2N2CCC3(CC2)CC3)nc(N2CCC(O)CC2)n1 [Example 11-37, 4-((2-Hydroxyethyl)sulfonamido)-N-(2-(4-hydroxypiperidin-1-yl)-6-methylpyrimidin-4-yl)-2-(6-azaspiro[2.5]octan-6-yl)benzamide]	–
281	Cc1cc(NC(=O)c2ccc(NS(=O)(=O)C3([C@H](C)O)CC3)cc2N2CCC3(CC2)CC3)nc(N2CCC(F)(F)CC2)n1 [Example 6-31-2, (S)-N-(2-(4,4-Difluoropiperidin-1-yl)-6-methylpyrimidin-4-yl)-4-((1-(1-hydroxyethyl)cyclopropane)-1-sulfonamido)-2-(6-azaspiro[2.5]octan-6-yl)benzamide]	–
70	Cc1cc(NC(=O)c2ccc(NS(=O)(=O)CCO)cc2N2CCC3(CC2)CC3)nc(OCCC(F)(F)F)n1 [Example 11-61, 4-((2-Hydroxyethyl)sulfonamido)-N-(6-methyl-2-(3,3,3-trifluoropropoxy)pyrimidin-4-yl)-2-(6-azaspiro[2.5]octan-6-yl)benzamide]	–
88	Cc1cc(NC(=O)c2ccc(NS(=O)(=O)CCO)cc2N2CCC3(CC2)CC3)nc(N2CCC(C#N)CC2)n1 [Example 11-33, N-(2-(4-Cyanopiperidin-1-yl)-6-methylpyrimidin-4-yl)-4-((2-hydroxyethyl)sulfonamido)-2-(6-azaspiro[2.5]octan-6-yl)benzamide]	–
–	Cc1cc(NC(=O)c2ccc(NS(=O)(=O)[C@@H](C)CO)cc2N2CCC3(CC2)CC3)nc(N2CCC(F)(F)CC2)n1 [Example 5-2, (S)-N-(2-(4,4-Difluoropiperidin-1-yl)-6-methylpyrimidin-4-yl)-4-((2-hydroxy-1-methylethyl)sulfonamido)-2-(6-azaspiro[2.5]octan-6-yl)benzamide]	70
260	Cc1cc(NC(=O)c2ccc(S(C)(=O)=O)cc2N2CCC3(CC2)CC3)nc(N2CCC(F)(F)CC2)n1 [Example 2-6, N-(2-(4,4-Difluoropiperidin-1-yl)-6-methylpyrimidin-4-yl)-4-(methylsulfonyl)-2-(6-azaspiro[2.5]octan-6-yl)benzamide]	–
67	Cc1cc(NC(=O)c2ccc(NS(=O)(=O)CCO)cc2N2CCC3(CC2)CC3)nc(N2CC(C#N)C2)n1 [Example 11-13, N-(2-(3-Cyanoazetidin-1-yl)-6-methylpyrimidin-4-yl)-4-((2-hydroxyethyl)sulfonamido)-2-(6-azaspiro[2.5]octan-6-yl)benzamide]	–
35	Cc1cc(NC(=O)c2ccc(NS(=O)(=O)CCO)cc2N2CCC3(CC2)CC3)nc(N2CC[C@H]3C[C@H]3C2)n1 [Example 11-43, N-(2-((1R,6R)-3-Azabicyclo[4.1.0]heptan-3-yl)-6-methylpyrimidin-4-yl)-4-((2-hydroxyethyl)sulfonamido)-2-(6-azaspiro[2.5]octan-6-yl)benzamide]	–
72	Cc1cc(NC(=O)c2ccc(NS(=O)(=O)[C@H]3CCOC3)cc2N2CCC3(CC2)CC3)nc(N2CC(F)(F)C2)n1 [Example 11-70, (S)-N-(2-(3,3-Difluoroazetidin-1-yl)-6-methylpyrimidin-4-yl)-2-(6-azaspiro[2.5]octan-6-yl)-4-((tetrahydrofuran)-3-sulfonamido)benzamide]	–
39	Cc1cc(NC(=O)c2ccc(NS(=O)(=O)CC3(O)COC3)cc2N2CCC3(CC2)CC3)nc(N2CCC(F)(F)CC2)n1 [Example 6-19, N-(2-(4,4-Difluoropiperidin-1-yl)-6-methylpyrimidin-4-yl)-4-(((3-hydroxyoxetan-3-yl)methyl)sulfonamido)-2-(6-azaspiro[2.5]octan-6-yl)benzamide]	–
23	Cc1cc(NC(=O)c2ccc(NS(=O)(=O)CCO)cc2N2CCC3(CC2)CC3)nc(N2CC(F)(F)C2)n1 [Example 7, N-(2-(3,3-Difluoroazetidin-1-yl)-6-methylpyrimidin-4-yl)-4-((2-hydroxyethyl)sulfonamido)-2-(6-azaspiro[2.5]octan-6-yl)benzamide]	–
53	Cc1cc(NC(=O)c2ccc(NS(=O)(=O)C3(CO)CC3)cc2N2CCC3(CC2)CC3)nc(N2CC(F)(F)C2)n1 [Example 11-68, N-(2-(3,3-Difluoroazetidin-1-yl)-6-methylpyrimidin-4-yl)-4-((1-(hydroxymethyl)cyclopropane)-1-sulfonamido)-2-(6-azaspiro[2.5]octan-6-yl)benzamide]	–
22	O=C(Nc1ccnc(N2CCC(F)(F)CC2)n1)c1ccc(NS(=O)(=O)CCO)cc1N1CCC2(CC1)CC2 [Example 11-57, N-(2-(4,4-Difluoropiperidin-1-yl)pyrimidin-4-yl)-4-((2-hydroxyethyl)sulfonamido)-2-(6-azaspiro[2.5]octan-6-yl)benzamide]	–
71.6	Cc1cc(NC(=O)c2ccc(NS(=O)(=O)CCO)cc2N2CCC3(CC2)CC3)nc(N2CCCC2)n1 [Example 11-26, 4-((2-Hydroxyethyl)sulfonamido)-N-(6-methyl-2-(pyrrolidin-1-yl)pyrimidin-4-yl)-2-(6-azaspiro[2.5]octan-6-yl)benzamide]	–
37.3	Cc1cc(NC(=O)c2ccc(NS(=O)(=O)[C@H](C)CO)cc2N2CCC3(CC2)CC3)nc(N2CCO[C@H](C)C2)n1 [Example 6-23-2, 4-(((R)-2-Hydroxy-1-methylethyl)sulfonamido)-N-(6-methyl-2-((R)-2-methylmorpholino)pyrimidin-4-yl)-2-(6-azaspiro[2.5]octan-6-yl)benzamide]	–
172	Cc1cc(NC(=O)c2ccc(NS(=O)(=O)CCO)cc2N2CCC3(CC2)CC3)nc(N2CC(C(C)(C)O)C2)n1 [Example 11-14, 4-((2-Hydroxyethyl)sulfonamido)-N-(2-(3-(2-hydroxypropan-2-yl)azetidin-1-yl)-6-methylpyrimidin-4-yl)-2-(6-azaspiro[2.5]octan-6-yl)benzamide]	–
105	Cc1cc(NC(=O)c2ccc(NS(=O)(=O)CCO)cc2N2CCC3(CC2)CC3)nc(N2CCC[C@H](O)C2)n1 [Example 11-53, (S)-4-((2-Hydroxyethyl)sulfonamido)-N-(2-(3-hydroxypiperidin-1-yl)-6-methylpyrimidin-4-yl)-2-(6-azaspiro[2.5]octan-6-yl)benzamide]	–
58	O=C(Nc1ccnc(OCCC(F)(F)F)c1)c1ccc(NS(=O)(=O)CCO)cc1N1CCC2(CC1)CC2 [Example 11-59, 4-((2-Hydroxyethyl)sulfonamido)-2-(6-azaspiro[2.5]octan-6-yl)-N-(2-(3,3,3-trifluoropropoxy)pyridin-4-yl)benzamide]	–
